Molecules are shown by their SMILES.

The text below walks through data of US9840512B2, “Antidiabetic bicyclic compounds” (Merck Sharp & Dohme Corp., priority 2013, dated 2017).

Experiment [1] concerns the target T1, human GPR40 (Homo sapiens, UniProt O14842). As to the kind of experiment: Inositol Phosphate Turnover (IP1) Assay 1. The following applies: Human IP1 Assay 1, EC50, nM, HEK cells stably expressing human GPR40.
Protocol: The assay is performed in 96-well format. HEK cells stably expressing human GPR40 are plated to be 60-80% confluent within 72 h. After 72 h, the plates are aspirated and the cells washed with inositol-free DMEM (ICN). The wash media is replaced with 150 μL of 3H-inositol labeling media (inositol-free media containing 0.4% human albumin or 0.4% mouse albumin, 1× pen/strep antibiotics, glutamine, 25 mM HEPES to which is added 3H-myo-inositol NEN #NET114A 1 mCi/mL, 25 Ci/mmol diluted 1:150 in loading media with a final specific radioactivity of 1 μCi/150 μL). Alternatively, the human and mouse albumin can be added after the overnight labeling step before the addition of LiCl.
The assay is typically run the next day after 18 h labeling. On the day of the assay, 5 μL of 300 mM LiCl is added to all wells and incubated at 37 degrees for 20 min. 0.75 μL of 200× compounds are added and incubated with the cells for 60 min at 37 degrees. The media is then aspirated off and the assay terminated with the addition of 60 μL 10 mM formic acid. The cells are lysed for 60 min at room temperature. 15-30 μL of lysate is mixed with 70 μL/1 mg YSi SPA beads (Amersham) in clear bottom Isoplates. The plates are shaken for 2 h at room temperature. Beads are allowed to settle and the plates are counted in the Wallac Microbeta.
Experiment [2] deals with T1, human GPR40. Kind of experiment: FLIPR assay (agonist-induced calcium mobilization). The settings on record: Human FLIPR EC50, nM or % activation (EC50 values), GPR40/CHO NFAT BLA cells.
Protocol: Human and mouse GPR40 stable cell-lines were generated in CHO cells stably expressing NFAT BLA (Beta-lactamase). […] The expression plasmids were transfected using lipofectamine (Life Technologies) following manufacturer's instructions. Stable cell-lines were generated following drug selection.
FLIPR (Fluorimetric Imaging Plate Reader, Molecular Devices) assays were performed to measure agonist-induced calcium mobilization of the stable clones. For the FLIPR assay, one day before assay, GPR40/CHO NFAT BLA cells were seeded into black-wall-clear-bottom 384-well plates (Costar) at 1.4×10e4 cells/20 μL medium/well. The cells were incubated with 20 μl/well of the assay buffer (HBSS, 0.1% BSA, 20 mM HEPES, 2.5 mM probenecid, pH 7.4) containing 8 μM fluo-4, AM, 0.08% pluronic acid at room temperature for 100 minutes. Fluorescence output was measured using FLIPR. Compounds were dissolved in DMSO and diluted to desired concentrations with assay buffer.

T1 sequence (O14842 whole entry): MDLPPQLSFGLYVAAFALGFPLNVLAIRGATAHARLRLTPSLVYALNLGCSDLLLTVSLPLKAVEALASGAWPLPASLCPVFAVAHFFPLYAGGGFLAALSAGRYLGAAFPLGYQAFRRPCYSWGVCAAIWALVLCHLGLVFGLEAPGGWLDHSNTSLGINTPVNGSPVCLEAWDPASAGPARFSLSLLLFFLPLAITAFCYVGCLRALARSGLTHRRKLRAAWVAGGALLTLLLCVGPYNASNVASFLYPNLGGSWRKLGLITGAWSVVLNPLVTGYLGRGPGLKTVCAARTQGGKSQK

In the case of `CC#CC(CC(=O)O)c1ccc2c(c1)CCC(c1cccc(-c3c(C)noc3C)c1)O2` (mixture of isomers) [Example 22], the EC50 at human GPR40 [1] was 638 nM; on human GPR40 [2] it was 151 nM.

Turning to `CC#C[C@@H](CC(=O)O)c1ccc2c(c1)CCC(c1cc(-c3cccnc3C(F)(F)F)ccc1F)O2` (mixture of isomers) [Example 31], the concentration giving a half-maximal response (EC50) on human GPR40 [1] turned out to be 60 nM; at human GPR40 [2], 95 nM.

`CC#C[C@@H](CC(=O)O)c1ccc2c(c1)CCC(c1ccc(OCc3ccccc3)cc1)O2` (mixture of isomers) [Example 50]: the concentration giving a half-maximal response (EC50) on human GPR40 [1] was 877 nM; on human GPR40 [2], 9 nM.

With `CC(C)=CC(CC(=O)O)c1ccc2c(c1)CCC(c1cccc(-c3c(C)cccc3C)c1)O2` (mixture of isomers) [Example 44], the concentration for a half-maximal effect (EC50) on human GPR40 [1] came to 6060 nM; on human GPR40 [2] it was 69 nM.

In the case of `CC#C[C@@H](CC(=O)O)c1ccc2c(c1)CCC(c1cccc(-c3cccc4c3c(C(F)(F)F)nn4C)c1)O2` (mixture of isomers) [Example 32], the EC50 on human GPR40 [1] is 149 nM; at human GPR40 [2], 57 nM.

Take `CC#CC(CC(=O)O)c1ccc2c(c1)CCC(c1cc(Br)ccc1F)O2` (mixture of isomers) [Example 28]: the EC50 at human GPR40 [1] is 536 nM; at human GPR40 [2], 115 nM.

Take `Cc1cccc(C)c1-c1cccc(C2CCc3cc(CCC(=O)O)ccc3O2)c1` (centres unmarked) [Example 1, 3-(2-(2′,6′-dimethyl-[1,1′-biphenyl]-3-yl)chroman-6-yl)propanoic acid]: the values for the EC50 at human GPR40 [1] and on human GPR40 [2] were 1210 nM and 102 nM, respectively.

On to `CC#CC(CC(=O)O)c1ccc2c(c1)CCC(c1cc(-c3ccc(OC)nc3C)ccc1F)O2` (mixture of isomers) [Example 24], for which the EC50 is 58 nM at human GPR40 [1] and 57 nM at human GPR40 [2].

As for `CC#CC(CC(=O)O)c1ccc2c(c1)CCC(c1nc(-c3ccc(OC)nc3C)ccc1F)O2` (mixture of isomers) [Example 19], the EC50 at human GPR40 [1] was determined as 4500 nM; at human GPR40 [2] it was 106 nM.

`CC#CC(CC(=O)O)c1ccc2c(c1)CCC(c1cccc(Oc3ccc(C#N)cc3)c1)O2` (mixture of isomers) [Example 23]: the EC50 on human GPR40 [1] turned out to be 116 nM; on human GPR40 [2] it was 40 nM.

Consider `CC#C[C@@H](CC(=O)O)c1ccc2c(c1)CCC(c1cccc(-c3cccc4c3c(C(F)(F)F)nn4C)c1)O2` (single isomer, unassigned) [Example 41], for which the values for the concentration for a half-maximal effect (EC50) on human GPR40 [1] and at human GPR40 [2] were 175 nM and 64 nM, respectively.

With `CC#CC(CC(=O)O)c1ccc2c(c1)CCC(c1cccc(-c3ccccc3C(F)(F)F)c1)O2` (mixture of isomers) [Example 27], the EC50 was found to be 726 nM on human GPR40 [1] and 52 nM at human GPR40 [2].

As to `CC#CC(CC(=O)O)c1ccc2c(c1)CCC(c1nc(-c3c(C)cccc3C)ccc1F)O2` (mixture of isomers) [Example 16], the half-maximal effective concentration (EC50) turned out to be 710 nM at human GPR40 [1] and 76 nM at human GPR40 [2].

For the compound `Cc1cccc(C)c1-c1cccc(C2CCc3cc(CCC(=O)O)ccc3O2)c1` (single isomer, unassigned) [Example 5], the values for the EC50 at human GPR40 [1] and at human GPR40 [2] were 1670 nM and 85 nM, respectively.

For the compound `CC#C[C@@H](CC(=O)O)c1ccc2c(c1)CCC(c1cccc(-c3cccc4c3c(C(F)(F)F)nn4C)c1)O2` (single isomer, unassigned) [Example 42], the values for the EC50 at human GPR40 [1] and at human GPR40 [2] were 1220 nM and 74 nM, respectively.

With `Cc1ccccc1-c1ccc(F)c(C2CCc3cc4c(cc3O2)OC[C@H]4CC(=O)O)c1` (some centres unmarked) [Example 56], the EC50 at human GPR40 [1] is 1910 nM; on human GPR40 [2], 117 nM.

For `CC#C[C@@H](CC(=O)O)c1ccc2c(c1)CCC(c1cc(-c3ccc(OC)nc3C)ccc1F)O2` (single isomer, unassigned) [Example 38], the EC50 turned out to be 1690 nM at human GPR40 [1] and 83 nM at human GPR40 [2].

Consider `Cc1cccc(C)c1-c1cccc(C2CCc3cc(CCC(=O)O)ccc3O2)c1` (single isomer, unassigned) [Example 4], for which the concentration giving a half-maximal response (EC50) at human GPR40 [1] is 544 nM; at human GPR40 [2], 38 nM.

As for `Cc1cc(OCCS(C)(=O)=O)cc(C)c1-c1cccc(C2CCc3cc(CCC(=O)O)ccc3O2)c1` (racemic) [Example 6], the EC50 was 1700 nM on human GPR40 [1] and 185 nM on human GPR40 [2].
